Results from patent publication US20090118135A1, “METHODS AND COMPOUNDS FOR REGULATING APOPTOSIS” (The Burnham Institute, priority 2007, published 2009).
Read-outs that look alike come from different tables or passages of the source.

What was measured:
GST-Bcl-B = target: T1, GST-Bcl-B (Homo sapiens, UniProt Q9HD36); assay: Bcl-B/FITC-TR3-r8 fluorescence polarization competition (displacement) assay, HTS and dose-response
T1 sequence (Q9HD36 1-182 limits assumed): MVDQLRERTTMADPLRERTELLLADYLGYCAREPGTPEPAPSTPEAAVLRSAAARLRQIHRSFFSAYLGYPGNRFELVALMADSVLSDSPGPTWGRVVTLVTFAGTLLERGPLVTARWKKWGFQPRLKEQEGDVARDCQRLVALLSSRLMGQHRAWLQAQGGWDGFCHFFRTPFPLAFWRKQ

GST-Bfl-1 = target: T2, GST-Bfl-1 (Homo sapiens, UniProt Q16548); assay: Bfl-1/FITC-Bid BH3 competitive fluorescence polarization assay; assay type: binding; details: primary HTS hits, MLSCN library (PubChem SIDs), Table 5B
T2 construct: lacking their C-terminal transmembrane domains (about the last 20 amino acids) (“ΔTM”); made in house; host or cells: XL-1 Blue E. coli, pGEX 4T-1
T2 sequence (Q16548 1-155 limits assumed): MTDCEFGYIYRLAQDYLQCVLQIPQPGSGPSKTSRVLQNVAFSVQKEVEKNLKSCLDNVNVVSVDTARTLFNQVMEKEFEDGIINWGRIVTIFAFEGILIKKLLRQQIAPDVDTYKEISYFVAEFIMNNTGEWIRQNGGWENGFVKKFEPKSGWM

[1] = Table 8, NCI Structural library, Binding Assay, FP, Concentration 0.02 uM
[2] = read-out: Result Value (Result Type % Inhibition), BCL-b/TR3
[3] = Table 7, NCI Mechanistic library, Binding Assay, FP, Concentration 0.02 uM

O=C(O)C1=CC(=C(c2ccc(O)c(C(=O)O)c2)c2ccc(O)c(C(=O)O)c2)C=CC1=O [A 1895]
Is Hit (GST-Bcl-B; LOPAC1280 library primary screen): Yes
F Ratio (GST-Bcl-B; LOPAC1280 library, fluorescence intensity normalized to plate negative controls): 0.07629
inhibition at 0.02 µM (GST-Bcl-B; read-out: Result Value (% Inhibition)): 107%

O=[N+]([O-])c1ccc2c(/N=N/c3ccc4ccccc4c3O)c(O)cc(S(=O)(=O)O)c2c1 [Compound 7223]
F Ratio (GST-Bcl-B; [1]): 0.05712
Is Hit (GST-Bcl-B; [1]): Yes
inhibition at 0.02 µM (GST-Bcl-B; [2]): 139%

Cc1ccc(/N=N/c2c(O)ccc3cc(S(=O)(=O)O)ccc23)cc1 [Compound 7814]
F Ratio (GST-Bcl-B; [1]): 0.28
Is Hit (GST-Bcl-B; [1]): Yes
inhibition at 0.02 µM (GST-Bcl-B; [2]): 54.3%

O=S(=O)(O)c1ccc(NN(c2c(O)ccc3ccccc23)S(=O)(=O)O)cc1 [Compound 9600]
F Ratio (GST-Bcl-B; [1]): 0.4361
Is Hit (GST-Bcl-B; [1]): Yes
inhibition at 0.02 µM (GST-Bcl-B; [2]): 50.7%

O=C1c2ccccc2C(=O)c2c(O)c(O)cc(O)c21 [Compound 10447]
F Ratio (GST-Bcl-B; [3]): 0.5532
Is Hit (GST-Bcl-B; [3]): Yes
inhibition at 0.02 µM (GST-Bcl-B; [2]): 146%

Cc1ccc(/N=N/c2c(O)c(S(=O)(=O)O)cc3cc(S(=O)(=O)O)ccc23)c(C)c1 [Compound 10455]
F Ratio (GST-Bcl-B): 0.4406
Is Hit (GST-Bcl-B): Yes
inhibition at 0.02 µM (GST-Bcl-B; [2]): 50.7%

N=C1C=CC(=C(c2ccc(N)cc2)c2ccc(N)cc2)C=C1 [Compound 10460]
F Ratio (GST-Bcl-B; [1]): 0.1378
Is Hit (GST-Bcl-B; [1]): Yes
inhibition at 0.02 µM (GST-Bcl-B; [2]): 81.7%

Oc1c(C(O)(c2ccccc2)c2ccc3ccccc3c2O)ccc2ccccc12 [Compound 13984]
F Ratio (GST-Bcl-B; [1]): 0.7704
Is Hit (GST-Bcl-B; [1]): Yes
inhibition at 0.02 µM (GST-Bcl-B; [2]): 87%

CN(C)CS/C(N)=N\C(O)C(Cl)(Cl)Cl (centres unmarked) [Compound 14555]
F Ratio (GST-Bcl-B; [1]): 0.6767
Is Hit (GST-Bcl-B; [1]): Yes
inhibition at 0.02 µM (GST-Bcl-B; read-out: Result Value (Result Type % Inhibition), BCL-b/TR3, Table 8, NCI Structural library, Binding Assay, FP, Concentration 0.02 uM): 59.9%

CCN(CCO)CCNc1ccc(C)c2sc3ccccc3c(=O)c12 [Compound 20534]
F Ratio (GST-Bcl-B; [3]): 0.6411
Is Hit (GST-Bcl-B; [3]): Yes
inhibition at 0.02 µM (GST-Bcl-B; [2]): 74.4%

CCN1C=C/C(=C\C=C\c2cc[n+](CC)c3ccccc23)C2C=CC=CC21 (centres unmarked) [Compound 34391]
F Ratio (GST-Bcl-B; [3]): 0.2486
Is Hit (GST-Bcl-B; [3]): Yes
inhibition at 0.02 µM (GST-Bcl-B; [2]): 104%

O=S(=O)(O)c1cc(/N=N/c2cc(S(=O)(=O)O)c3ccccc3c2O)ccc1/C=C/c1ccc(/N=N/c2cc(S(=O)(=O)O)c3ccccc3c2O)cc1S(=O)(=O)O [Compound 34931]
F Ratio (GST-Bcl-B; [3]): 0.0509
Is Hit (GST-Bcl-B; [3]): Yes
inhibition at 0.02 µM (GST-Bcl-B; [2]): 80.3%

O=S(=O)(O)c1cc(/N=[N+](\[O-])c2cc(S(=O)(=O)O)c3ccccc3c2)cc2ccccc12 [Compound 37031]
F Ratio (GST-Bcl-B; [1]): 0.4022
Is Hit (GST-Bcl-B; [1]): Yes
inhibition at 0.02 µM (GST-Bcl-B; [2]): 84.6%

O=S(=O)(O)c1cc(O)c2c(O)c(/N=N/c3cccc4ccccc34)c(S(=O)(=O)O)cc2c1 [Compound 45208]
F Ratio (GST-Bcl-B; [1]): 0.1219
Is Hit (GST-Bcl-B; [1]): Yes
inhibition at 0.02 µM (GST-Bcl-B; [2]): 66.1%

O=S(=O)(O)c1ccc2c(/N=N/c3c(O)ccc4ccccc34)cccc2c1 [Compound 45576]
F Ratio (GST-Bcl-B; [1]): 0.05945
Is Hit (GST-Bcl-B; [1]): Yes
inhibition at 0.02 µM (GST-Bcl-B; [2]): 119%

O=S(=O)(O)c1ccc2c(/N=N/c3cccc4ccccc34)c(O)c(S(=O)(=O)O)cc2c1 [Compound 45583]
F Ratio (GST-Bcl-B; [1]): 0.1069
Is Hit (GST-Bcl-B; [1]): Yes
inhibition at 0.02 µM (GST-Bcl-B; [2]): 84.6%

N/C(=N\N=C\c1ccc(-c2ccc(O)c(C(=O)O)c2)o1)N[N+](=O)[O-] [Compound 17416093]
% Activity (GST-Bfl-1): 84.4%
FRatio (GST-Bfl-1): 0.7
